Laboratory results as given in ChEMBL document CHEMBL4295262, “Evaluation of the utility of stem-cell derived cardiomyocytes for drug proarrhythmic potential” (2019).
Each block holds one compound with its values, some of them ahead of it.

Columns and labels:
Settings in all cases: human, ipsc-cm
[1] = (§1) Electrical activity assay on cell lines treated with a given drug. DMSO was used as a vehicle and a control, unblinded dofetilide was used as a control.
[2] = as §1; remark: listed apart in the source
[3] = as §1; format: ADME, cell-based
[4] = as §1; remark: listed apart in the source
[5] = as §1; remark: listed apart in the source
[6] = as §1; format: ADME, cell-based; remark: listed apart in the source
[7] = 0.001 µM, concentration (um) 0.001 uM
[8] = 0.01 µM, concentration (um) 0.01 uM
[9] = 0.1 µM, concentration (um) 0.1 uM
[10] = 0.009507 µM, concentration (um) 0.00950736 uM
[11] = 0.03004 µM, concentration (um) 0.0300433 uM
[12] = 0.09494 µM, concentration (um) 0.0949367 uM
[13] = 0.3 µM, concentration (um) 0.3 uM

Compound: COC(=O)C1=C(C)NC(C)=C(C(=O)OC)C1c1ccccc1[N+](=O)[O-] [NIFEDIPINE]
APDc ([1]; 0.001 µM): 59.3
FPD measurement ([1]; 0.001 µM): 59.3 FPDc
APDc ([1]; 0.01 µM): 57.63
FPD measurement ([1]; 0.01 µM): 57.63 FPDc
APDc ([1]; 0.1 µM): More Than Half The Wells Had A Quiescence Event Or Apdc Readings Of 0
FPD measurement ([1]; 0.1 µM): More Than Half The Wells Had A Quiescence Event Or Apdc Readings Of 0
APDc ([1]; 1 µM): More Than Half The Wells Had A Quiescence Event Or Apdc Readings Of 0
FPD measurement ([1]; 1 µM): More Than Half The Wells Had A Quiescence Event Or Apdc Readings Of 0
FPD measurement ([2]; 0.001 µM): 1 Values Out Of 1 Were Excluded Due To Quiescence Or 0 Fpdc
FPDc ([2]; 0.001 µM): 1 Values Out Of 1 Were Excluded Due To Quiescence Or 0 Fpdc
FPD measurement ([2]; 0.01 µM): 1 Values Out Of 1 Were Excluded Due To Quiescence Or 0 Fpdc
FPDc ([2]; 0.01 µM): 1 Values Out Of 1 Were Excluded Due To Quiescence Or 0 Fpdc
FPD measurement ([2]; 0.1 µM): 1 Values Out Of 1 Were Excluded Due To Quiescence Or 0 Fpdc
FPDc ([2]; 0.1 µM): 1 Values Out Of 1 Were Excluded Due To Quiescence Or 0 Fpdc
FPD measurement ([2]; 1 µM): 1 Values Out Of 1 Were Excluded Due To Quiescence Or 0 Fpdc
FPDc ([2]; 1 µM): 1 Values Out Of 1 Were Excluded Due To Quiescence Or 0 Fpdc
FPD measurement [3, 7]: 5 Values Out Of 5 Were Excluded Due To Quiescence Or 0 Apdc
FPDc [3, 7]: 21.76
FPD measurement [3, 8]: 5 Values Out Of 5 Were Excluded Due To Quiescence Or 0 Apdc
FPDc [3, 8]: 17.1
FPD measurement [3, 9]: More Than Half The Wells Had A Quiescence Event Or Apdc Readings Of 0
FPDc [3, 9]: More Than Half The Wells Had A Quiescence Event Or Fpdc Readings Of 0
FPD measurement ([3]; 1 µM, concentration (um) 1 uM): More Than Half The Wells Had A Quiescence Event Or Apdc Readings Of 0
FPDc ([3]; 1 µM, concentration (um) 1 uM): More Than Half The Wells Had A Quiescence Event Or Fpdc Readings Of 0
FPD measurement ([4]; 0.001 µM): 50.88 FPDc
FPDc ([4]; 0.001 µM): 50.88
FPD measurement ([4]; 0.01 µM): 43.95 FPDc
FPDc ([4]; 0.01 µM): 43.95
FPD measurement ([4]; 0.1 µM): 24.94 FPDc
FPDc ([4]; 0.1 µM): 24.94
FPD measurement ([4]; 1 µM): 16.23 FPDc
FPDc ([4]; 1 µM): 16.23
FPDc ([5]; 0.001 µM): 73.26
FPDc ([5]; 0.01 µM): 70.54
FPDc ([5]; 0.1 µM): 51.56
FPDc ([5]; 1 µM): 21.94

APDc ([1]; 0.009507 µM): 66.7
FPD measurement ([1]; 0.009507 µM): 66.7 FPDc
APDc ([1]; 0.03004 µM): 75.75
FPD measurement ([1]; 0.03004 µM): 75.75 FPDc
FPDc ([5]; 0.009507 µM): 63.48
FPDc ([5]; 0.03004 µM): 45.72
FPDc ([5]; 0.09494 µM): 31.81
FPDc ([5]; 0.3 µM): 19.65
FPD measurement [6, 10]: 39.69 FPDc
Compound: CCOC(=O)C1=C(C)NC(C)=C(C(=O)OC)C1c1cccc([N+](=O)[O-])c1 (centres undefined) [NITRENDIPINE]
APDc ([1]; 0.09494 µM): More Than Half The Wells Had A Quiescence Event Or Apdc Readings Of 0
FPD measurement ([1]; 0.09494 µM): More Than Half The Wells Had A Quiescence Event Or Apdc Readings Of 0
APDc ([1]; 0.3 µM): More Than Half The Wells Had A Quiescence Event Or Apdc Readings Of 0
FPD measurement ([1]; 0.3 µM): More Than Half The Wells Had A Quiescence Event Or Apdc Readings Of 0
FPD measurement ([2]; 0.009507 µM): 1 Values Out Of 1 Were Excluded Due To Quiescence Or 0 Fpdc
FPDc ([2]; 0.009507 µM): 1 Values Out Of 1 Were Excluded Due To Quiescence Or 0 Fpdc
FPD measurement ([2]; 0.03004 µM): 1 Values Out Of 1 Were Excluded Due To Quiescence Or 0 Fpdc
FPDc ([2]; 0.03004 µM): 1 Values Out Of 1 Were Excluded Due To Quiescence Or 0 Fpdc
FPD measurement ([2]; 0.09494 µM): 1 Values Out Of 1 Were Excluded Due To Quiescence Or 0 Fpdc
FPDc ([2]; 0.09494 µM): 1 Values Out Of 1 Were Excluded Due To Quiescence Or 0 Fpdc
FPD measurement ([2]; 0.3 µM): 1 Values Out Of 1 Were Excluded Due To Quiescence Or 0 Fpdc
FPDc ([2]; 0.3 µM): 1 Values Out Of 1 Were Excluded Due To Quiescence Or 0 Fpdc
FPD measurement [3, 10]: More Than Half The Wells Had A Quiescence Event Or Apdc Readings Of 0
FPDc [3, 10]: More Than Half The Wells Had A Quiescence Event Or Fpdc Readings Of 0
FPD measurement [3, 11]: More Than Half The Wells Had A Quiescence Event Or Apdc Readings Of 0
FPDc [3, 11]: More Than Half The Wells Had A Quiescence Event Or Fpdc Readings Of 0
FPD measurement [3, 12]: More Than Half The Wells Had A Quiescence Event Or Apdc Readings Of 0
FPDc [3, 12]: More Than Half The Wells Had A Quiescence Event Or Fpdc Readings Of 0
FPD measurement [3, 13]: 5 Values Out Of 5 Were Excluded Due To Quiescence Or 0 Apdc
FPDc [3, 13]: 5 Values Out Of 5 Were Excluded Due To Quiescence Or 0 Fpdc
FPD measurement ([5]; 0.009507 µM): 5 Values Out Of 5 Were Excluded Due To Quiescence Or 0 Apdc
FPD measurement ([5]; 0.03004 µM): 5 Values Out Of 5 Were Excluded Due To Quiescence Or 0 Apdc
FPD measurement ([5]; 0.3 µM): 5 Values Out Of 5 Were Excluded Due To Quiescence Or 0 Apdc
FPDc [6, 10]: 6 Values Out Of 6 Were Excluded Due To Quiescence Or 0 Fpdc
FPDc [6, 11]: 6 Values Out Of 6 Were Excluded Due To Quiescence Or 0 Fpdc
FPDc [6, 12]: 6 Values Out Of 6 Were Excluded Due To Quiescence Or 0 Fpdc
FPDc [6, 13]: 6 Values Out Of 6 Were Excluded Due To Quiescence Or 0 Fpdc

FPDc [3, 7]: 20.04
FPDc [3, 8]: 19.19
FPDc [3, 9]: 20.37
FPDc ([3]; 1 µM, concentration (um) 1 uM): 19.11
FPDc ([5]; 0.001 µM): 67.41
FPDc ([5]; 0.01 µM): 65.79
FPDc ([5]; 0.1 µM): 66.77
FPDc ([5]; 1 µM): 63.51
FPD measurement [6, 7]: 48.77 FPDc
FPD measurement [6, 8]: 52.11 FPDc
FPD measurement [6, 9]: 71.18 FPDc
Compound: CC(C)(C)c1ccc(C(O)CCCN2CCC(C(O)(c3ccccc3)c3ccccc3)CC2)cc1 (centres undefined) [TERFENADINE]
FPD measurement ([2]; 0.001 µM): 1 Values Out Of 1 Were Excluded Due To Quiescence Or 0 Fpdc
FPDc ([2]; 0.001 µM): 1 Values Out Of 1 Were Excluded Due To Quiescence Or 0 Fpdc
FPD measurement ([2]; 0.01 µM): 1 Values Out Of 1 Were Excluded Due To Quiescence Or 0 Fpdc
FPDc ([2]; 0.01 µM): 1 Values Out Of 1 Were Excluded Due To Quiescence Or 0 Fpdc
FPD measurement ([2]; 0.1 µM): 1 Values Out Of 1 Were Excluded Due To Quiescence Or 0 Fpdc
FPDc ([2]; 0.1 µM): 1 Values Out Of 1 Were Excluded Due To Quiescence Or 0 Fpdc
FPD measurement ([2]; 1 µM): 1 Values Out Of 1 Were Excluded Due To Quiescence Or 0 Fpdc
FPDc ([2]; 1 µM): 1 Values Out Of 1 Were Excluded Due To Quiescence Or 0 Fpdc
FPD measurement [3, 7]: 5 Values Out Of 5 Were Excluded Due To Quiescence Or 0 Apdc
FPD measurement [3, 8]: 5 Values Out Of 5 Were Excluded Due To Quiescence Or 0 Apdc
FPD measurement [3, 9]: 5 Values Out Of 5 Were Excluded Due To Quiescence Or 0 Apdc
FPD measurement ([3]; 1 µM, concentration (um) 1 uM): 5 Values Out Of 5 Were Excluded Due To Quiescence Or 0 Apdc
FPDc [6, 7]: 6 Values Out Of 6 Were Excluded Due To Quiescence Or 0 Fpdc
FPDc [6, 8]: 6 Values Out Of 6 Were Excluded Due To Quiescence Or 0 Fpdc
FPDc [6, 9]: 6 Values Out Of 6 Were Excluded Due To Quiescence Or 0 Fpdc
FPDc ([6]; 1 µM, concentration (um) 1 uM): 6 Values Out Of 6 Were Excluded Due To Quiescence Or 0 Fpdc
